The target of one assay is T1, human VDR (Homo sapiens, UniProt P11473).
T1 construct: expressed in transfected cells; host or cells: HOS cells (ATCC), human osteoblast line; pcDNA3 expression vector
T1 sequence (P11473 1-427): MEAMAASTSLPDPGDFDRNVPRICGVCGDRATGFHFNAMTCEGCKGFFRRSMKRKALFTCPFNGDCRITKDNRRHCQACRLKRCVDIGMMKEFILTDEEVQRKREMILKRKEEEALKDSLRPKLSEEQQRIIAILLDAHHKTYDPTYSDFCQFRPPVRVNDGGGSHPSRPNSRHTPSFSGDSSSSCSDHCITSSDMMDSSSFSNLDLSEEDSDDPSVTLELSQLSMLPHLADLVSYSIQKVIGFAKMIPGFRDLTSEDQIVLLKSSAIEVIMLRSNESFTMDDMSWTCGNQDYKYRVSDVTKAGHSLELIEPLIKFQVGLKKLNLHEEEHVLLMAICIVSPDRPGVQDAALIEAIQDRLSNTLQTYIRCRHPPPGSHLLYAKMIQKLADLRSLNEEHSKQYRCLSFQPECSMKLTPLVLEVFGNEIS
T1 sequence (P19793 1-462 partner): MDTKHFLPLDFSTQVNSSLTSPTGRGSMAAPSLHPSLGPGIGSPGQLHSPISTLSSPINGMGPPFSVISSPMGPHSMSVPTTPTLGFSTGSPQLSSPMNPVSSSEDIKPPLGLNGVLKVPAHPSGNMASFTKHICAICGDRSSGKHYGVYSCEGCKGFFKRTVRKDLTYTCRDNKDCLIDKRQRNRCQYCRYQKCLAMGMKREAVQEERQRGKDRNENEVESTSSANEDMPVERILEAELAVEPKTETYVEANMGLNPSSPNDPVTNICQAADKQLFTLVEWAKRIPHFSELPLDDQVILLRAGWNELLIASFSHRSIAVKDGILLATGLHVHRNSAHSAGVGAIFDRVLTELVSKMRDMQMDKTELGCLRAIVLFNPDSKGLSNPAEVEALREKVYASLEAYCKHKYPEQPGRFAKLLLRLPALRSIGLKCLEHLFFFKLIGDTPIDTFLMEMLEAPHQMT
In words: Evaluation of VDR transcription activity in human osteoblasts (HOS cells), luciferase reporter. As to conditions: read-out: Activity (EC50 of VDR transcriptional activity). Type of assay: cell-based. (In general: A reporter such as luciferase makes a cellular process visible.)

Assay [1] has as its system rat oligodendrocyte progenitor cells. Put plainly: Promotive activity of rat oligodendrocyte progenitor cell differentiation-2 (immunostaining of MBP). As to conditions: Test 2; vitamin D derivative 2 μM, T3 30 nM, 4 days; DMSO 0.07. Type of assay: cell-based. As for the experimental part:
The promotive activity of oligodendrocyte progenitor cell (OPC) differentiation of the vitamin D derivatives was evaluated by immunostaining of MBP.
Subsequently, oligodendrocyte progenitor cell separation medium was added to the flask, and the mixture was similarly shaken for about 22 hours (37° C., 200 rpm), and the supernatant was collected to prepare oligodendrocyte progenitor cells.

As a reminder, the EC50 is the midpoint of the concentration-response curve.

Procedure for human VDR: (1) A reporter vector was constructed using pGL4.26 vector (Promega Corporation) and incorporating a sequence of DR3 (×4) gene promoter portion upstream of the luciferase gene. An expression vector was constructed by inserting a DNA sequence encoding human VDR and human RXRα into pcDNA3 vector (Thermo Fisher Scientific, Inc.). Human RenillaLuc-CMV vector (Promega Corporation) was used for the correction of gene transfer efficiency. HOS cells (ATCC) were cultured in DMEM medium containing 10% FBS under the condition of 37° C. and 5% CO2, and passaged every 2 or 3 days. (2) The passaged cells were collected by centrifugation and dispersed in phenol red free DMEM medium containing deactivated and 5% charcoal-treated fetal bovine serum (CSS) at a density of 4×10^5 cells/mL, and then the various vectors described in (1) were introduced using Lipofectamine LTX (Thermo Fisher Scientific, Inc.) reagent at a ratio of 0.25 mL per 1 mL of the cell solution. […] (3) After the incubation for 21 hours under the condition of 37° C. and 5% CO2, the luciferase activity was measured by multi-label counter EnVision (PerkinElmer, Inc.) using Dual-Glo Luciferase Assay kit (Promega Corporation). At the same time, the activity of Renilla luciferase was measured and used to correct the gene transfer efficiency.

For `C[C@H](CN1CC[C@@H](F)C1)[C@H]1CC[C@H]2/C(=C/C=C3C[C@@H](O)C[C@H](O)C3)CCC[C@]12C` [Compound B013, (1R,3R)-5-(2-((1R,3aS,7aR,E)-1-((S)-1-((R)-3-fluoropyrrolidin-1-yl)propan-2-yl)-7a-methyloctahydro-4H-inden-4-ylidene)ethylidene)cyclohexane-1,3-diol], the EC50 on human VDR lay in the range of 100 to 1000 nM.
As for `C[C@H](CN1CC[C@@H](CC(F)F)C1)[C@H]1CC[C@H]2/C(=C/C=C3C[C@@H](O)C[C@H](O)C3)CCC[C@]12C` [Compound B043, (1R,3R)-5-(2-((1R,3aS,7aR,E)-1-((S)-1-((S)-3-(2,2-difluoroethyl)pyrrolidin-1-yl)propan-2-yl)-7a-methyloctahydro-4H-inden-4-ylidene)ethylidene)cyclohexane-1,3-diol], the “mean (number of MBP-positive cells/number of Hoechst33342-positive cells)” value in assay [1] is reported as 0.53.

(Values after patent US20250195488A1, “MEDICINE CONTAINING VITAMIN D DERIVATIVE OR PHARMACEUTICALLY ACCEPTABLE SALT OR SOLVATE THEREOF, USED IN COMBINATION WITH IMMUNOMODULATORY SUBSTANCE” (TEEJIN PHARMA LIMITED, priority 2022, published 2025).)
